Test results from BindingDB's records for doi:10.1111/j.1747-0285.2012.01443.x (Pfizer, 2012).

Target: Tyrosine-protein kinase SYK (Homo sapiens, UniProt P43405)
Assay: Syk Enzyme Assay
Conditions: pH 7.4; 25 °C
From the text: A Lance TR-FRET assay (Perkin Elmer) was used to measure and compare the potency of compounds against Syk kinase domain.

Work on `COc1cc2nccc(Oc3ccc(NC(=O)N[C@@H]4C[C@H]4c4ccccc4)nc3)c2cc1OC` [Dimethoxyquinoline, 1] yielded an IC50 of 320 nM.
